How the values were obtained:
Type in all cases: cell-based
[1] = tested on: Mycosphaerella arachidis (syn. Cercospora arachidicola); assay: Mycosphaerella arachidis (syn. Cercospora arachidicola) growth inhibition in nutrient broth (microtiter plate, photometric); conditions: approximately 5-6 days
Experimental: (§1) Brown leaf spot of groundnut (peanut): Conidia of the fungus from cryogenic storage were directly mixed into nutrient broth (potato dextrose broth). After placing a (DMSO) solution of the test compounds into a microtiter plate (96-well format) the nutrient broth containing the fungal spores was added. The test plates were incubated at 24° C. and the inhibition of growth was determined photometrically after approximately 5-6 days at 620 nm. Two replicates per treatment were evaluated

Septoria tritici = Septoria tritici (leaf blotch) growth inhibition in nutrient broth (microtiter plate, photometric); conditions: 72 hours
Experimental: as §1, with “Conidia” for “Brown leaf spot of groundnut (peanut): Conidia”, “72 hours.” for “approximately 5-6 days at 620 nm.”, “evaluated.” for “evaluated”

Gaeumannomyces graminis = Gaeumannomyces graminis growth inhibition in nutrient broth (microtiter plate, photometric); conditions: 48 hours
Experimental: as §1, with “Mycelial fragments” for “Brown leaf spot of groundnut (peanut): Conidia”, “48 hours” for “approximately 5-6 days”, “evaluated.” for “evaluated”

## Cn1cc(C(=O)Nc2cccc3c2C2CCC3C2=C(Cl)Cl)c(C(F)F)n1 (centres unmarked) [C-IIIA]
[1]; C-IIIA 0.0156 ppm alone
  Observed control %: 20.0%
[1]; C-IIIA 0.0313 ppm alone
  Observed control %: 90.0%

## CC(C1CC1)C(O)(Cn1cncn1)c1ccc(Cl)cc1 (centres unmarked) [cypropconazole, Cyproconazole]
Septoria tritici; cypropconazole 0.0625 ppm alone
  Observed control %: 0.0%
Septoria tritici; cypropconazole 0.1250 ppm alone
  Observed control %: 0.0%
Septoria tritici; cypropconazole 0.2500 ppm alone
  Observed control %: 0.0%
Septoria tritici; cypropconazole 0.5000 ppm alone
  Observed control %: 70.0%
Septoria tritici; cypropconazole 1.0000 ppm alone
  Observed control %: 90.0%
Septoria tritici; cypropconazole 2.0000 ppm alone
  Observed control %: 90.0%

## CO/C=C(/C(=O)OC)c1ccccc1Oc1cc(Oc2ccccc2C#N)ncn1 [azoxystrobin, Azoxystrobin]
Gaeumannomyces graminis; azoxystrobin 0.0625 ppm alone
  Observed control %: 0.0%
Gaeumannomyces graminis; azoxystrobin 0.1250 ppm alone
  Observed control %: 20.0%
Gaeumannomyces graminis; azoxystrobin 0.2500 ppm alone
  Observed control %: 20.0%
Gaeumannomyces graminis; azoxystrobin 0.5000 ppm alone
  Observed control %: 50.0%
Gaeumannomyces graminis; azoxystrobin 1.0000 ppm alone
  Observed control %: 50.0%
Gaeumannomyces graminis; azoxystrobin 2.0000 ppm alone
  Observed control %: 50.0%

From patent publication US9439431B2, “Pesticidal mixtures comprising isoxazoline derivatives” (Syngenta Participations AG, priority 2011, dated 2016)
